Source: PMC2360244 (British Journal of Cancer, 2007)

How the values were obtained:
[1] = system: A2780 ovarian carcinoma cells; assay: A2780 tumour cell proliferation, MTT colorimetric assay; assay type: cell-based, human; conditions: Homo sapiens, A2780, 96 h, 4 days, mean±s.d.
Protocol: Control cells were treated with the combined respective vehicle.

[2] = system: A2780 ovarian carcinoma cells; assay: Cell-cycle analysis, propidium iodide staining and FACS; assay type: cell-based, human
Protocol: Human A2780 ovarian carcinoma cells were seeded at 2 × 10^6 cells per 75-cm^2 flask and, after 24 h, incubated with the indicated concentration of test compound. To analyse cell-cycle distribution, sub-confluent cells were collected, centrifuged and washed with PBS. The cell pellets were re-suspended in citrate buffer and nuclei were stained with propidium iodide (Sigma-Aldrich, Bornem, Belgium) as described previously ([Vindelov et al, 1983]). Analysis was carried out using a BD-LSR flow cytometer (BD Biosciences, Erembodegem, Belgium) equipped with an argon laser (488 nm excitation). Cell-cycle profiles were analysed using WinList 3D version 4.0 and areas under the curve were calculated using ModFit LT version 3.1 (Verity Software House Inc.).
DNA content of nuclei was evaluated using propidium iodide staining followed by FACS analysis, and the number of cells in sub-G1, G1, S and G2M phase was calculated as a percentage of control. Results are expressed as % of total cells and a representative experiment out of three is shown.

[3] = system: A2780 ovarian carcinoma cells; assay: Annexin V staining (apoptosis), FACS; assay type: cell-based, human; conditions: 48 h, concentration-dependent
Protocol: Human A2780 ovarian carcinoma cells were seeded at 2 × 10^6 cells per 75-cm^2 flask and, after 24 h, incubated with the indicated concentration of test compound for 48 h. The cells were subsequently collected, centrifuged and washed with PBS. The cell pellets were stained with Annexin-V-FITC antibody and propidium iodide with a kit from PharMingen, BD Biosciences, Erembodegem, Belgium (cat 66121E).
Cells were stained with Annexin V (Pharmingen) and propidium iodide, and analysed by FACS. […] Membrane-damaged cells were defined as both Annexin V- and propidium iodide-positive. Shown are mean values±variation for two independent experiments. […] Green asterisks represent mitotic cells, while red arrows point at specific DNA fragmentation. (B) Rat Aortic Ring Assays were performed as described in the Methods section.

[4] = system: microvessel outgrowth from rat aortic rings; assay: Rat aortic ring assay (angiogenesis); assay type: cell-based, Sprague-Dawley rats; conditions: 192 h, 300 nM, 8 days, compared to controls, mean±s.e.m., read-out: inhibition of total microvessel area
Protocol: Briefly, thoracic aorta were freshly isolated from 1- to 2-month-old Sprague–Dawley rats and 1-mm-long sections (aortic rings) were embedded in fibrin gel clots in six-well plates. […] Test compounds were added at the indicated concentrations at day 0 and again together with fresh media on day 2 and day 5 of culture. The ability of experimental compounds to inhibit microvessel outgrowth was compared directly with vehicle-treated control rings. […] Microvessel area, expressed as pixels^2, was determined for each aortic ring and the per cent inhibition of microvessel area compared to control rings was calculated using the mean values for each treatment group. Statistical differences between experimental groups (five independent rings) were analysed by ANOVA and Dunnett's t-test, with a P-value of <0.05 or less considered statistically significant.

[5] = system: acetylated H3 in A2780 ovarian xenografts; assay: H3 acetylation in A2780 xenograft tumour tissue, immunofluorescence; assay type: in vivo, mice; conditions: 40 mpk p.o. once daily, tumours harvested 4 h after dosing, day 2
Protocol: For immunofluorescent staining of AcH3, cryosections of A2780 ovarian carcinoma were fixed for 2 min in 4% neutral buffered formalin and subsequently for 10 min in ethanol (100%). After blocking with goat immunoglobulin (Jackson Immunoresearch Laboratories, Suffolk, UK) for 60 min, the sections were incubated with anti-AcH3 (Upstate, 1/5000) for 2 h and with goat anti-rabbit CY3-conjugated secondary antibody (1/500 Jackson Immunoresearch Laboratories) for 2 h. For negative controls, primary antibody was omitted. Nuclei were counterstained using Hoechst (1/2000) for 5 min and the cryosections were mounted in glycerin-gelatin. Images were taken using the Zeiss Axioplan 2 & Axiocam, and processed using Photoshop 7.0 and Image Tool Processing Kit. Representative images of each group (n=3) are shown. For TUNEL staining, cells were fixed with 4% paraformaldehyde for 5 min and then incubated for 1 h at 37°C in a solution containing 25 mM Tris, 200 mM sodium cacodylate, 1.25 mg ml^−1 BSA, 1.25 mM CoCl2, 10 mM dATP (Sigma Chemical Company), 2.5 mM fluorescein-dUTP (Amersham Pharmacia Biotech AB) and 50 U ml^−1 TdT (Roche, Vilvoorde, Belgium). Incorporated Fluorescein-dUTP was detected with a sheep antifluorescein peroxidase-conjugated antiserum (Boehringer Mannheim, 1/600, Roche, Vivoorde, Belgium). The peroxidase conjugate was visualised using amino ethylcarbazol. […]

[6] = Tolerability of once-daily oral dosing for 28 days; assay type: in vivo; conditions: up to 40 mpk p.o., immunodeficient mice
Protocol: All mice used in the in vivo studies were athymic male NMRI nu/nu mice purchased from Janvier (France) and were treated according to the ethical guidelines prescribed by UKCCCR. A2780 ovarian, HCT116 colon and H460 lung carcinoma cells were injected s.c. (10^7 cells per 200 μl) into the inguinal region of Nude mice. […] Tumour size was determined using caliper measurement and tumour volume was determined by using the formula: TV=(a^2 × b)/2 (in which a represents the width and b the length).

[7] = system: lung, breast, colon, prostate and ovarian tumour cell lines; assay: cells; conditions: Homo sapiens, 96 h, read-out: IC50 values, cell proliferation of solid tumour cell lines (range over panel), lung, breast, colon, prostate and ovarian tumour cell lines; 4-day incubation
Protocol: (§1) The effect of HDAC inhibitors on cell proliferation was measured using an MTT (3-(4,5-dimethyl-2-thiazolyl)-2,5-diphenyl-2H-tetrazolium bromide)-based assay (Serva, Heidelberg, Germany). Cells were seeded in Falcon or NUNC 96-well culture plates (Life Technologies, Merelbeke, Belgium) in 100 μl culture medium and allowed to adhere to plastic for 18–48 h. Test compounds were dissolved in DMSO and further dilutions were made in culture medium, with final concentrations of DMSO never exceeding 0.1% (v v^−1), and incubated for 4 days. Proliferation of NSCLC was assessed using Alamar Blue-based assay. Cells were seeded in COSTAR 384-well culture plates in 45 μl culture medium and allowed to adhere to plastic for 24 h. Alamar blue was added after 72 h, with the exception of HCC-15, HCC-44, NCI-H2122 and NCI-H460, where Alamar blue was added after 90 h and OD values were measured at 4 days following compound exposure. Data are presented as mean±s.d. of three independent experiments.

[8] = system: ALL, AML, CLL, CML, lymphoma and myeloma tumour cells; assay: cells; conditions: Homo sapiens, read-out: IC50 values, proliferation of haematological tumour cells (range over panel)
Protocol: as §1

O=C(NO)c1cnc(N2CCN(S(=O)(=O)c3ccc4ccccc4c3)CC2)nc1 [R306465]
IC50 [1]: 39 ± 17 nM | G0–G1, % of total cells ([2]; 0.1 μM, 24 h): 44.6% | G2–M, % of total cells ([2]; 0.1 μM, 24 h): 28.3% | S-phase, % of total cells ([2]; 0.1 μM, 24 h): 27.1% | G0–G1, % of total cells ([2]; 0.1 μM, 48 h): 64.4% | G2–M, % of total cells ([2]; 0.1 μM, 48 h): 17.0% | S-phase, % of total cells ([2]; 0.1 μM, 48 h): 18.6% | G0–G1, % of total cells ([2]; 0.3 μM, 24 h): 76.5% | G2–M, % of total cells ([2]; 0.3 μM, 24 h): 7.8% | S-phase, % of total cells ([2]; 0.3 μM, 24 h): 15.7% | G0–G1, % of total cells ([2]; 0.3 μM, 48 h): 67.2% | G2–M, % of total cells ([2]; 0.3 μM, 48 h): 14.9% | S-phase, % of total cells ([2]; 0.3 μM, 48 h): 17.9% | G0–G1, % of total cells ([2]; 1 μM, 24 h): 55.4% | G2–M, % of total cells ([2]; 1 μM, 24 h): 39.2% | S-phase, % of total cells ([2]; 1 μM, 24 h): 5.4% | G0–G1, % of total cells ([2]; 1 μM, 48 h): 45.5% | G2–M, % of total cells ([2]; 1 μM, 48 h): 44.5% | S-phase, % of total cells ([2]; 1 μM, 48 h): 10.0% | concentration at which decrease in S phase with parallel increase in G1 phase was observed ([2]; 24 h incubation): 300 nM | concentration at which increase in the sub-G1 fraction was observed ([2]; 24 h incubation): 1 µM | concentration from which increase in sub-G1 phase was observed ([2]; 48 h incubation): ≥ 100 nM | percentage of cells positive for Annexin V [3]: significant increase | inhibition at 0.3 µM [4]: 67 ± 7% | H3 acetylation in tumour tissue [5]: maximal and homogeneous increase in H3 acetylation | tolerability [6]: well-tolerated | IC50 [7]: 30 to 300 nM | IC50 [8]: 15 to 486 nM
